Results on one molecule are retold here after patent US8999984B2, “Macrophage migration inhibitory factor antagonists and methods of using same” (University of Louisville Research Foundation, Inc., priority 2006, dated 2015).

In one series the test system is HIF-1α. The series is described as follows: HIF-1α stabilization in MIF-containing and MIF-deficient mouse embryonic fibroblasts. In kind it is cell-based. The settings on record: FIG. 9C. How it is done:
FIGS. 9A-9C are pictures of immunoblots showing MIF tautomerase inhibitors block HIF-1 stabilization in an MIF-specific manner. […] After 5 hours, nuclear lysates were isolated and subjected to immunoblotting for HIF-1. In FIGS. 9A and 9B, MIA-PaCa pancreatic adenocarcinoma cells were used. In FIG. 9C, MIF+/+ and MIF−/− mouse embryonic fibroblasts were evaluated.
Lastly, in order to verify that the effect of #16 on HIF-1α inhibition is through its inhibitory effects on MIF, MIF-containing cells and MIF-deficient cells were tested for inhibitory activity.

For another series, the target named is T1, recombinant MIF (rMIF) (Homo sapiens, UniProt P14174).
T1 construct: made in house
T1 sequence (P14174 2-115 limits assumed): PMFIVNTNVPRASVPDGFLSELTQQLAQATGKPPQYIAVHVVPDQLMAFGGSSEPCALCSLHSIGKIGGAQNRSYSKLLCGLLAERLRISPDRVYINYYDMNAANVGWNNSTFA
As to the kind of experiment: L-dopachrome methyl ester tautomerase assay. The format is biochemical. The settings on record: 500 nM rMIF pre-mixed 5 or 10 min with inhibitor, 2 mM L-dopachrome methyl ester; FIG. 8; read-out: IC50, MIF enzyme (tautomerase) inhibition.

The next series addresses T2, MIF/sCD74 (Homo sapiens, UniProt P14174).
T2 construct: made in house; host or cells: E. coli BL21 (DE3)pLysS (sCD74)
T2 sequence (P14174 2-115 limits assumed): T1 sequence (P14174 2-115 limits assumed)
The series is described as follows: MIF/MIF receptor (CD74) capture assay. The note with it: 0.1 μM antagonist against 0.2 μM biotinylated MIF (maximal inhibition possible 50%); FIG. 14B. In kind it is binding. The procedure: FIGS. 14A-14C are a schematic (FIG. 14C) of a MIF/MIF receptor capture assay and graphs of data collected from the assay (FIGS. 14A and 14B) that provides a tool for structure-function studies of MIF muteins and candidate inhibitors. […] FIG. 14A is a graph of data from the assay where CD74 coated plates were pre-incubated with the indicated concentrations of native MIF (MIF), denatured MIF or P1G MIF followed by the addition of 0.2 μM biotin-hrMIF. FIG. 14B is a graph of data from the assay where 1.0 μM of denatured MIF (dMIF), native MIF (MIF) or anti-CD74 were pre-incubated with soluble CD74 for 30 mins before adding 0.2 μM biotin-hrMIF. For inhibitors, 0.1 μM ISO-1 or 4-iodo-6-phenyl pyrimidine (Cmp16) were pre-incubated for 30 mins with 0.2 μM biotin-hrMIF before adding mixture to CD74 coated plate. In both FIGS. 14A and 14B, plates were developed 2 hours later by incubating Streptavidin-AP followed by PnPP and measurement at OD405.
As previously noted, the ability of small molecule antagonists to block MIFs biological functions requires the blockade of MIF binding to its cell surface receptor (Meyer-Siegler et al., 2006). […]
96 well plates can be coated with 60 μl/well of purified, soluble CD74 (CD74^73-232) at 0.1 mg/ml and incubated at 4° C. overnight. […] After washing, 60 μl/well of PNPP (Sigma) is added and allowed to develop in the dark until being read at 405 nm.

Another series has as its system VEGF. As to the kind of experiment: CoCl2-induced VEGF expression and secretion (ELISA). The format is cell-based. The note with it: read-out: suppression of PHD inhibitor (CoCl2) induced VEGF. From the text:
It was next tested whether the observed differences in the catalytic inhibitory activities between these two compounds was similarly observed in this biological assay of MIF inhibition. […] Of note, this ˜5 fold difference in biological inhibitory activity closely corresponds to the ˜5 fold difference in enzymatic inhibitory activity that was observed when comparing these two compounds (FIG. 8).
On the technique in general: ELISA stands for enzyme-linked immunosorbent assay.

Another series has as its target T3, endogenous liver MIF (Mus musculus, UniProt P34884).
T3 construct: from tissue; host or cells: mouse liver homogenate
The series is described as follows: In vivo inhibition of liver MIF tautomerase activity. The settings on record: single bolus injection 50 mg/kg, 6 hours post-injection, FIG. 13, read-out: inhibition of endogenous liver MIF enzyme tautomerase activity. Also on record: species or system C57BI/6 mice. How it is done:
FIG. 13 is a graph showing the MIF inhibitor 4-iodo-6-phenyl pyrimidine inhibits MIF in vivo. C57BI/6 mice were injected with corn oil or 1 mg 4-iodo-6-phenyl pyrimidine (# 16) suspended in corn oil for 6 hours before removal of the livers. After homogenizing tissue, […] total liver protein was assessed for L-dopachrome methyl ester tautomerase activity.
(§1) A study to determine the MTD and in vivo inhibitory activity of compound #16 was also completed. […] In vivo enzyme inhibition by compound #16 was next analyzed. […] Further, the discovery of the present MIF inhibitory compounds of Formula I disclosed herein by the present novel virtual screening and systematic testing methods validates the present approach and experimental design to identify further MIF small molecule inhibitors.

A short description of series [1]: MTD / toxicity study, daily injections for 7 days. In kind it is in vivo. The settings on record: daily injections for 7 days of 0.5, 1, 2 and 4 mg (25, 50, 100 and 200 mg/kg).
Text: as §1

Protocol for recombinant MIF (rMIF): 500 nM recombinant MIF (rMIF) was pre-mixed for either 5 (filled) or 10 (open) minutes with the indicated inhibitor concentrations followed by the addition of 2 mM final concentration of L-dopachrome methyl ester substrate. 5 minutes later OD 475 was measured spectrophotometrically, with tautomerization leading to colorless substrate.
In FIG. 10A, 500 nM rMIF was pre-mixed for 30 seconds with the indicated inhibitor concentrations followed by the addition of 2 mM final concentration of L-dopachrome methyl ester substrate. 5 minutes later OD 475 was measured spectrophotometrically (tautomerization leads to colorless substrate) and resulting data graphed.
Dopachrome tautomerase assay. […] MIF catalysis and inhibitory studies can be performed as described (Lubetsky et al., 2002). […] Activity can be determined at room temperature by adding dopachrome methyl ester (0.3 ml) to a cuvette containing 500 nM rMIF (Bernhagen et al., 1994) in 50 mM potassium phosphate buffer, pH 6, 0.5 mM EDTA and 5 minutes later measuring the decrease in absorbance at 475 nm spectrophotometrically. […] Additionally, candidate inhibitors identified in the last section of the present Example can be dissolved in DMSO at various concentrations and added to the cuvette (final concentration of DMSO will be no more than 0.1%) with the MIF 1 minute prior to the addition of the dopachrome substrate.

In the case of `Ic1cc(-c2ccccc2)ncn1` [compound #16, 4-iodo-6-phenylpyrimidine], the “HIF-1α stabilization block in MIF-containing fibroblasts” value in the series on HIF-1α (MIF^+/− murine embryonic fibroblasts) was “potently blocks”. For the same molecule, the “HIF-1α stabilization in MIF-deficient fibroblasts” value in the series with HIF-1α (MIF^−/− fibroblasts) is “unaffected”. Besides, at recombinant MIF (rMIF), the IC50 is about 5 µM. The “inhibition of MIF receptor (CD74) binding” value at MIF/sCD74 worked out at 50%. For the same molecule, the inhibition at 50 µM in the series on VEGF was over 80%. The inhibition at 50 mg/kg at endogenous liver MIF was over 50%. For the same molecule, the toxicity entry in series [1] is listed as “no apparent toxicity”.

In general, IC50 refers to the concentration that inhibits the measured activity by half.
